How the values were obtained:
Aphidius rhopalosiphi = test: LR50; higher = less toxic; conditions: not reported; mortality
Colinus virginianus = conditions: acute; oral; mortality
Bibionidae = conditions: chronic/long-term; duration: 23 days; reproduction
Oncorhynchus mykiss = conditions: acute; duration: 96 hours; mortality
Anas platyrhynchos = conditions: acute; oral; unspecified; mortality
Pimephales promelas = conditions: chronic/long-term; duration: 28 days
Apis mellifera = conditions: acute, mortality
Tagia sp. = conditions: chronic/long-term; reproduction
Coturnix japonica = conditions: chronic
Hypoaspis aculeifer = conditions: chronic/long-term; reproduction

Cc1ccc(-c2c(Cl)nc(C#N)n2S(=O)(=O)N(C)C)cc1
LR50 (Aphidius rhopalosiphi): > 209 g/ha
LD50 (Colinus virginianus): > 2000 mg/kg-day
NOEC (Bibionidae): 0.0117 mg/L
LC50 (Oncorhynchus mykiss): > 0.107 mg/L
LD50 (Anas platyrhynchos): > 2000 mg/kg-day
NOEC (Pimephales promelas): 0.09 mg/L
LD50 (Apis mellifera; dermal): 9.52 µg/piece
LD50 (Apis mellifera; oral, unspecified): > 31.8 µg/piece
LD50 (Rattus norvegicus; acute, oral, mortality): > 5000 mg/kg
NOAEL (Rattus norvegicus; chronic, duration: 2 years, organ weight): 17 mg/kg-day
NOAEL (Rattus norvegicus; reproduction developmental, body weight): 89 mg/kg-day
NOAEL (Rattus norvegicus; subchronic, duration: 90 days, oral, organ weight): 29.5 mg/kg-day
NOEC (Tagia sp.): 2 mg/kg
NOAEL (Coturnix japonica): 151 mg/kg-day
NOEC (Hypoaspis aculeifer): 18.7 mg/kg
